Assay results as given in patent publication US20150064221A1, “COMPOUNDS HAVING IMMUNOMUDULATOR ACTIVITY” (priority 2012, published 2015).
“Also recorded” adds a separate entry of the source.

Assays:
MLD-STZ-induced diabetes = experiment: Streptozotocin (MLD-STZ) induced diabetes; format: in vivo, CBA/H mice
Procedure: (A) Euglycaemic female 12 week old NOD mice were treated intraperitoneally with either 20 mg/kg bw VGX-1027 or its vehicle six times a week from the 12th until the 25th week of age. An additional control group of mice was left untreated. Each group consisted of 16 mice. The data are representative of two independent experiments that were merged because of interstudies variability lower than 10%. Statistical analysis was performed by Logrank (Mantel-Cox). (B) Plasma glucose levels in control CBA/H mice receiving STZ (40 mg/kg/day, for 5 consecutive days) in conjunction with 12 daily intreperitoneum injections of vehicle (STZ), or in mice treated with STZ and VGX-1027 given as a continuous 12-day treatment. 100 mg/kg bw of VGX-1027, administered orally from day −1 to day +10. Results from a representative experiment are presented as mean±SD for seven to eight mice per group. *p<0.05 refers to treatment with MLD-STZ.
Both intraperitoneal and oral treatment with VGX-1027 suppressed clinical development of diabetes. Clinical development of diabetes was attempted to be induced in CBA/H mice by multiple low doses of streptozotocin. CBA/H mice developed sustained hyperglycemia over a 2-week period following MLD-STZ injections. As expected, CBA/H control mice treated with the vehicle of VGX-1027 either orally or intraperitoneally developed diabetes with sustained hyperglycemia developed over a 2-week period following MLD-STZ injections.
The effect of VGX-1027 with STZ-induced diabetes was also evaluated. STZ is a DNA alkylating agent with particular toxicity to pancreatic β cells. VGX-1027 was administered orally for 12 days, and STZ was administered into mice for 5 consecutive days starting a day after VGX-1027 treatment.

[1] = test system: enterobacterial antigen-reactive CD4+CD25− T cells; conditions: in vitro; Mangano et al. 2008; cited from earlier work
[2] = test system: Thioglycollate-elicited macrophages; experiment: TNF-α production of macrophages treated with TLR agonists; format: cell-based; conditions: 10 μg/ml, 48 hours
Procedure: (§1) (A) Thioglycollate-elicited macrophages (1×10^6/ml) were stimulated with either LPS (5 μg/ml), zymosan (ZYM, 50 μg/ml), MDP (25 μg/ml), or Poly(I:C) (50 μg/ml) in the presence or absence of VGX-1027 (10 μg/ml). TNF-α was measured 48 hours post treatment. (B) Relative phosphorylations of 1-κBα and p38 were measured at the indicated time points following stimulation with LPS (5 μg/ml). The y-axis is presented as fold change in comparison to the values obtained from LPS-treated cultures alone. * p<0.05.
Thioglycollate-elicited macrophages were treated with multiple TLR agonists for 48 hours. TNF-α production was measured. The following agonists were used to activate the various TLRs.

p38 and 1-kBα = experiment: LPS-induced signalling pathway phosphorylation; format: cell-based
Procedure: as §1
(Jiang et al., J. Biol. Chem., (278) 16713-16719 (2003). In addition, it was observed that VGX-1027 inhibited LPS-induced phosphorylation of p38 and 1-kBα, indicating VGX-1027 inhibits a protein upstream of both the p38 and NF-κB, signaling pathways (FIG. 4b).

DNBS-induced colitis = conditions: DNBS model; Mangano et al. 2008; cited from earlier work
CYP450 2C19 = CYP450 2C19 (Homo sapiens, UniProt P33261); experiment: CYP450 inhibition; format: in vitro ADME; conditions: 2C19
Procedure: (§2) The highest plasma concentrations generally occurred in 1-2 hours. […] The highest level of inhibition was ˜35% for 2C19 at a 30 μM concentration. […] Lastly, VGX-1027 is stable in human liver S9 fractions (with phase 1 and 2 cofactors) with t1/2>90 minutes, which indicates a low likelihood of metabolism in the liver.

CYP2C19 = CYP2C19 (Homo sapiens, UniProt P33261); experiment: CYP450 inhibition; format: in vitro ADME; conditions: human; 2C19 at 30 μM; read-out: highest level of inhibition
Procedure: as §2

CYP450 2C9 = CYP450 2C9 (Homo sapiens, UniProt P11712); experiment: CYP450 inhibition; format: in vitro ADME
Procedure: as §2

CYP450 3A4 = CYP450 3A4 (Homo sapiens, UniProt P08684); experiment: CYP450 inhibition; format: in vitro ADME
Procedure: as §2

CYP450 1A2 = CYP450 1A2 (Homo sapiens, UniProt P05177); experiment: CYP450 inhibition; format: in vitro ADME
Procedure: as §2

CYP450 2D6 = CYP450 2D6 (Homo sapiens, UniProt P10635); experiment: CYP450 inhibition; format: in vitro ADME
Procedure: as §2

[3] = test system: systemic lupus erythematosus (SLE); experiment: NZB/NZW F1 model of systemic lupus erythematosus; format: in vivo, NZB/NZW F1 mice
Procedure: FIG. 19. Effects of VGX-1027 administration on survival rate (A), proteinuria (B) and serum anti-dsDNA antibodies (C) of NZB/NZW F1 mice treated for 20 weeks with either VGX-1027 or vehicle.
FIG. 20. Histopathological analysis (A) and relative phospho-STAT3 (B) levels in kidney sample of NZB/NZW F1 mice treated for 20 weeks with either VGX-1027 or vehicle.
To determine the effects of VGX-1027 on the development and progression of SLE, lupus-prone NZB/NZW F1 were treated daily with 5 mg/mouse VGX-1027 i.p. for 20 weeks, starting at 16 weeks of age. Control mice received an equal volume of vehicle. Control mice started to die at 20 weeks of age. By week 36, 62.5% of them were dead compared to the only 33.3% of treated mice (p=0.0487 by Log-rank test) (FIG. 19A). Improved survival was correlated with inhibition of renal disease. Proteinuria was assessed once a week. […] Eventually, all of the mice developed proteinuria but the delay in disease progression and prolonged survival of VGX-1027 treated animals remained evident (FIG. 19B).

[4] = Twenty-eight day toxicology study in dogs; format: in vivo; conditions: 28 days, highest dose 100 mg/kg/day
Procedure: Twenty-eight day toxicology studies were performed in both mice and dogs with increasing concentration to achieve toxicity. The following are the results of those studies.

Chain of CYP450 2C19 (P33261 whole entry): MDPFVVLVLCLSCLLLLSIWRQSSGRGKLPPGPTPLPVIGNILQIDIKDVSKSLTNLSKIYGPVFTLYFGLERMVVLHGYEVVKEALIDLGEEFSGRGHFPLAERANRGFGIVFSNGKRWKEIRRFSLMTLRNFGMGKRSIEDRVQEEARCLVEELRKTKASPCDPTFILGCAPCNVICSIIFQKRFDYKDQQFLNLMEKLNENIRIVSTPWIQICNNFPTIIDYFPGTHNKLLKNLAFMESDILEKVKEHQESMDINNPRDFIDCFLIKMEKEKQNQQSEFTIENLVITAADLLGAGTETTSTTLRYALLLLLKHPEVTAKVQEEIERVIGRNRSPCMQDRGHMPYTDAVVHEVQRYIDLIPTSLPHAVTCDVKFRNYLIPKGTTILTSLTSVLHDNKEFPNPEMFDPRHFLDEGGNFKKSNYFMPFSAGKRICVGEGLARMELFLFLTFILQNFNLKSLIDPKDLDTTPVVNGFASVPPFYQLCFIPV
Chain of CYP2C19 (P33261 whole entry): as above
Chain of CYP450 3A4 (P08684 whole entry): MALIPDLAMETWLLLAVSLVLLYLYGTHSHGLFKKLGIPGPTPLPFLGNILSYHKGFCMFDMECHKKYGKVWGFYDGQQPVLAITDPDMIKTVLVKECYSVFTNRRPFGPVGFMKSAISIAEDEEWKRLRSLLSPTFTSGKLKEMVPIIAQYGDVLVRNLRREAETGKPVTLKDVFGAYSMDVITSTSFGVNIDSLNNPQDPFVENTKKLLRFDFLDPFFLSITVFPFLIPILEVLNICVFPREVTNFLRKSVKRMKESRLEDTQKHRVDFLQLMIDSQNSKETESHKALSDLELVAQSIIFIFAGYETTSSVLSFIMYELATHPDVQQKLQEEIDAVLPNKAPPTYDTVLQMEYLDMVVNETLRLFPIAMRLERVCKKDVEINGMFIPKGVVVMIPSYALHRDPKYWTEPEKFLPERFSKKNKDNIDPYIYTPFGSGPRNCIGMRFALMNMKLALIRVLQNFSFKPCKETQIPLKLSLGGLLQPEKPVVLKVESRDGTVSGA
Chain of CYP450 2D6 (P10635 whole entry): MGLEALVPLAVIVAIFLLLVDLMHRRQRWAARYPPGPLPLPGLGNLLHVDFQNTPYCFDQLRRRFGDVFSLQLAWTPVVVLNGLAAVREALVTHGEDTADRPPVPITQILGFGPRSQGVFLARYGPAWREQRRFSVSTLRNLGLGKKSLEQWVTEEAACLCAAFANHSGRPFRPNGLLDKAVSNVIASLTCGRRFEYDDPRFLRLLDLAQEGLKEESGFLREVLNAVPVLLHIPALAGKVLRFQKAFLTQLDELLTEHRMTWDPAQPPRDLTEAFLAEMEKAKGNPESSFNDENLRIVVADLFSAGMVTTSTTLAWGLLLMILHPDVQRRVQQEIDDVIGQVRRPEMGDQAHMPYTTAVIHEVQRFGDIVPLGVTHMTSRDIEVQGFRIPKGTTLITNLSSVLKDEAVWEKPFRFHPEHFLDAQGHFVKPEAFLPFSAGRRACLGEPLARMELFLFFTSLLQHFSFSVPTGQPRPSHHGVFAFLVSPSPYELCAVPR
Chain of CYP450 2C9 (P11712 whole entry): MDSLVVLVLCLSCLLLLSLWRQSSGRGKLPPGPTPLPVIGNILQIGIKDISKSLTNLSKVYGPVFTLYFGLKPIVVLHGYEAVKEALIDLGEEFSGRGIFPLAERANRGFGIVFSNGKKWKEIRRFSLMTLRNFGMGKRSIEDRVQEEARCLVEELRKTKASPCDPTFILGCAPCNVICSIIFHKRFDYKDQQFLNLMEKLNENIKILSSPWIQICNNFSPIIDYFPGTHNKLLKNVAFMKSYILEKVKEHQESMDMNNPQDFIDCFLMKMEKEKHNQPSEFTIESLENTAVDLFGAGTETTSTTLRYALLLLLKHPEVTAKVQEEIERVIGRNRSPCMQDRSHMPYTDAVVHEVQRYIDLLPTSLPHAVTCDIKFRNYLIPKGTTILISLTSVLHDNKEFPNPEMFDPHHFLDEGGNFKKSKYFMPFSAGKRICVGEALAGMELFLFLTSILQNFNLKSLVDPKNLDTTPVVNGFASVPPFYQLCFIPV
Chain of CYP450 1A2 (P05177 whole entry): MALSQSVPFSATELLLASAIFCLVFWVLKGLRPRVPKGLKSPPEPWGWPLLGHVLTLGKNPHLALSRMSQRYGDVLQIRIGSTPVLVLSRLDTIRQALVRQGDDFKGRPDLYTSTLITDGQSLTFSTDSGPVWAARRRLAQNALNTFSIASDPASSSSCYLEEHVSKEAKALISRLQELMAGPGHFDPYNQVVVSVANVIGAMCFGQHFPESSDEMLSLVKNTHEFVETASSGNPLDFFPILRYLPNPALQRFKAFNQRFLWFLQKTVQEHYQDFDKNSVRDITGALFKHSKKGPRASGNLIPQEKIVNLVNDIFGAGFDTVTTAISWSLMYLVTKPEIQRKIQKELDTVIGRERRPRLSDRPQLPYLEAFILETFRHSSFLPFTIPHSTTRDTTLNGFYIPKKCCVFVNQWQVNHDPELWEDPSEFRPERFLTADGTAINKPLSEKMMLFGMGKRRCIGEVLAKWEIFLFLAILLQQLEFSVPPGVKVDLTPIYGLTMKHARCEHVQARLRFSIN

For O=C(O)CC1CC(c2ccccc2)=NO1 (stereo not shown) [VGX-1027, 3-phenyl-4,5-dihydro-5-isoxazoleacetic acid], the “diabetogenic effect of MLD-STZ” value (MLD-STZ-induced diabetes; intraperitoneally) was “significantly reduced”, the development of hyperglycemia (MLD-STZ-induced diabetes; orally (100 mg/kg, 12 days), 100 mg/kg) was “did not develop hyperglycemia; also recorded: significantly reducing” and the “infiltration of immune cells, atrophy and loss of islet margins in pancreas” value (MLD-STZ-induced diabetes; orally, 12 days) was “prevented”. The “proliferation of enterobacterial antigen-reactive CD4+CD25− T cells” value [1] was “inhibits”, the TNF-α production ([2]; LPS (5 μg/ml)) was “inhibited” and the TNF-α production ([2]; MDP (25 μg/ml)) was “inhibited”. The TNF-α production ([2]; ZYM (50 μg/ml)) was “inhibited”, the TNF-α production ([2]; poly(I:C) (50 μg/ml)) was “did not affect” and the ERK pathway (p38 and 1-kBα) was “up-regulation”. The “phosphorylation of 1-kBα” value (p38 and 1-kBα; LPS-induced) was “inhibited”, the “phosphorylation of p38” value (p38 and 1-kBα; LPS-induced) was “inhibited” and the “colonic production of proinflammatory cytokines (IL-1β, TNF-α, IL-12p70, IFN-γ)” value (DNBS-induced colitis) was “reduced colonic production”. The CYP450 inhibition (CYP450 2C19) was “no significant inhibition”, the inhibition at 30 µM (CYP2C19) was roughly 35% and the CYP450 inhibition (CYP450 2C9) was “no significant inhibition”. The CYP450 inhibition (CYP450 3A4) was “no significant inhibition”, the CYP450 inhibition (CYP450 1A2) was “no significant inhibition” and the CYP450 inhibition (CYP450 2D6) was “no significant inhibition”. For the same compound, the “serum anti-dsDNA autoantibodies” value ([3]; 36-weeks old, p<0.0001) was “significant lower levels”, the anti-dsDNA antibodies ([3]; at 26 weeks of age) was “Only slightly increased levels” and the mice dead ([3]; by week 36, 5 mg/mouse i.p. daily for 20 weeks) was 33.3%. For the same compound, the “renal histopathology mean score” value ([3]; end-stage nephritis, p=0.01) was 1.9±0.8, the “relative levels of renal p-STAT3 (ELISA)” value ([3]; p=0.0234) was “significant reduction” and the levels of proteinuria ([3]; throughout the experimental period, p=0.0265) was “significantly lower”. For the same compound, the early deaths [4] was 3.
